Source: PubChem BioAssay (NCI)
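Values below derive from 48-hour exposures of cells grown in 96-well plates, with endpoints linearly interpolated between the two concentrations bracketing the appropriate inhibition level. Here, GI50 denotes the concentration required for 50% inhibition of growth. TGI: concentration producing complete growth inhibition.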

Tests used:
Assay in all cases: NCI anticancer screen, dose series, 48 h
U251 CNS = system: U251 CNS
OVCAR-4 ovarian = system: OVCAR-4 ovarian
M14 melanoma = system: M14 melanoma
KM12 colon = system: KM12 colon
OVCAR-3 ovarian = system: OVCAR-3 ovarian
UACC-257 melanoma = system: UACC-257 melanoma
HS 578T breast = system: HS 578T breast
TK-10 renal = system: TK-10 renal
MDA-MB-435 = system: MDA-MB-435
T-47D breast = system: T-47D breast

Structure (SMILES) | TGI (U251 CNS) [µM] | TGI (OVCAR-4 ovarian) [µM] | TGI (M14 melanoma) [µM] | TGI (KM12 colon) [µM] | TGI (OVCAR-3 ovarian) [µM] | TGI (UACC-257 melanoma) [µM] | TGI (HS 578T breast) [µM] | TGI (TK-10 renal) [µM] | TGI (MDA-MB-435) [µM] | TGI (T-47D breast) [µM] | GI50 (U251 CNS) [µM] | GI50 (OVCAR-4 ovarian) [µM] | GI50 (M14 melanoma) [µM] | GI50 (KM12 colon) [µM] | GI50 (OVCAR-3 ovarian) [µM] | GI50 (UACC-257 melanoma) [µM] | GI50 (HS 578T breast) [µM] | GI50 (TK-10 renal) [µM] | GI50 (MDA-MB-435) [µM] | GI50 (T-47D breast) [µM]
O=C(CCCN1CCC(O)(c2ccc(Cl)cc2)CC1)c1ccc(F)cc1 | 41.1 | > 100 | 34.6 | 39.1 | 45.2 | 46.7 | 65.9 | > 100 | 33.7 | > 100 | – | – | – | – | – | – | – | – | – | –
COc1cc(Nc2ncc(-c3ccccc3)o2)cc(OC)c1 | > 25 | > 25 | > 25 | > 25 | > 25 | > 25 | > 9.65 | > 25 | > 25 | > 25 | > 25 | > 25 | > 25 | 1.59 | > 25 | > 25 | 1.39 | > 25 | > 25 | > 25
Cc1ccccc1NC(=O)c1sc2nc(C)c(C(=O)/C=C/c3ccccc3)cc2c1N | 1.99 | > 50 | 6.12 | 2.02 | 2.12 | 8.71 | > 50 | 6.04 | 2.33 | 2.34 | 0.951 | 1.42 | 1.58 | 0.901 | 1 | 1.83 | 1.77 | 1.55 | 0.895 | 0.975
CC1(C)CNc2cc(NC(=O)c3cccnc3NCc3ccncc3)ccc21 | > 100 | > 100 | 88.6 | > 100 | > 77.5 | 98.2 | > 100 | > 100 | > 100 | > 88.5 | 39.1 | 18 | 20.2 | 38 | 21.9 | 28.8 | 26.8 | 43.1 | 26.1 | 17
CNC(=O)c1c(NC(=O)c2ccc(C(C)(C)C)cc2)sc2c1CCC(=O)C2 | 1.45 | 0.991 | 1.79 | 1.34 | 1.6 | 3.49 | 3.07 | 1.97 | 1.42 | 1.53 | 0.143 | 0.195 | 0.346 | 0.313 | 0.444 | 0.824 | 0.38 | 0.374 | 0.335 | 0.184
CC1CC[P+](c2ccccc2)(c2ccccc2)c2c1ccc1ccccc21 (stereo unspecified) | > 100 | > 100 | 41.9 | 14.8 | > 58.8 | 13.9 | 7.66 | > 100 | 16.4 | > 71.6 | 2.85 | – | – | – | 3.09 | – | – | 11.4 | – | –
CC(N)(Cc1c[nH]c2cccc(F)c12)C(=O)O (stereo unspecified) | > 1000 | > 1000 | > 1000 | > 1000 | > 1000 | > 1000 | > 1000 | > 1000 | > 1000 | > 1000 | > 1000 | > 1000 | > 1000 | > 1000 | > 1000 | > 1000 | 786 | > 1000 | > 1000 | 978
COc1cc(/C=N/Nc2ncnc3c2cnn3-c2ccccc2)ccc1O | > 25 | > 25 | > 25 | > 25 | > 25 | > 25 | > 25 | > 25 | > 15.7 | > 25 | 11.6 | 15.5 | > 21.4 | 1.64 | 7.18 | > 25 | 2.18 | > 19.2 | 1.41 | 7.64
CCOCCCn1c2c(c3c(O)cccc31)C(=O)c1ccccc1-2 | 62.5 | 69.3 | 31.5 | 39.4 | 55.3 | 68.6 | 82.3 | 76.2 | 46.5 | 46.5 | 23.7 | 21.3 | 16.2 | 16.6 | 21.9 | 27.8 | 32.8 | 23.4 | 18.4 | 13.9
COc1cccc(CC(C)=C(c2ccc(OCCN3CCCCC3)cc2)c2ccc(OCCN3CCCCC3)cc2)c1 | 3.7 | 4.03 | 3.76 | 4.11 | 4.04 | 4.33 | 4.02 | 4.54 | 3.57 | 4.06 | 1.81 | 1.95 | 1.67 | 1.93 | 1.95 | 2.14 | 1.52 | 2.36 | 1.67 | 1.58
Nc1ccc(C2=CC(c3ccc(Cl)cc3)N3C=CSC3=N2)cc1 (stereo unspecified) | 12.1 | > 100 | 7.43 | 3.86 | 7.43 | 17 | > 100 | 28.5 | 6.76 | 27.7 | 2.94 | 13 | 2.86 | 1.95 | 2.79 | 3.8 | 23.5 | 11 | 2.43 | 4.76
CCN(Cc1ccccc1)C1CCN(Cc2cc(Br)ccc2O)CC1 | > 100 | > 100 | 54.5 | > 100 | > 100 | > 100 | > 100 | > 100 | > 100 | > 100 | 32.5 | 33.7 | 20.7 | 42.3 | 80.6 | 26 | 57.2 | > 100 | 30.2 | 24
COC(=O)[C@H](Cc1cnc[nH]1)NC(=O)[C@@H](NC(=O)Nc1cc(C(F)(F)F)cc(C(F)(F)F)c1)C(C)C | – | 29 | 34 | 35.3 | 28.3 | 29.9 | 47.6 | 30.7 | 34.3 | 28 | – | 15 | 16.8 | 18.4 | 14.7 | 15.7 | 16.8 | 16.6 | 17.3 | 12.4
O=C(/C=C\c1ccc([N+](=O)[O-])cc1)c1ccccc(=O)c1O | > 100 | 18.1 | 6.5 | 2.87 | 14.4 | 7.85 | 36.8 | 8.91 | 7.55 | 23.8 | – | – | – | – | – | – | – | – | – | –
COC12C=C/C(=C(/C(=O)OCc3ccccn3)C(=O)CCCCCCCCC3(OC)C=C/C(=C(/C(=O)OCc4ccccn4)C(=O)CCCCCCCC1)O3)O2 | 1.52 | 2.28 | 0.571 | 1.39 | 1.1 | 4.27 | > 100 | 4.19 | 0.48 | 6.24 | 0.386 | 0.332 | 0.252 | 0.354 | 0.326 | 1.05 | 0.783 | 1.69 | 0.209 | 0.588
COCc1c(-c2cc3cc(C)cc(OC)c3s2)c2c(N)ncnn2c1CN1CCNC(=O)C1 | 79.7 | 61.1 | 35.4 | 77.6 | > 100 | 34.6 | 13.7 | 30.6 | 24 | 47.4 | 3.86 | 1.88 | 4.12 | 5.62 | 8.08 | 4.06 | 1.84 | 3.64 | 4.29 | 4.84
CC1=C(SCCC(=O)OC(C[Se]C2=C(C)C(=O)c3ccccc3C2=O)C(=O)NCCCCCC(=O)OCc2ccccc2)C(=O)c2ccccc2C1=O (stereo unspecified) | 13.6 | 25.1 | 4.22 | 4.07 | 18.2 | 10.1 | > 100 | 27.2 | 13 | 51.8 | 4.09 | 12.3 | 2.01 | 1.4 | 5.01 | 3.46 | 7.6 | 13.8 | 2.13 | 17.7
O=S(=O)(NNc1ccccc1)c1ccccc1 | 33.9 | 31.5 | 17.3 | 18.1 | 58.7 | > 100 | > 100 | > 100 | 21.3 | 51.5 | – | – | – | – | – | – | – | – | – | –
CCN(CC)CCCNc1cc(OC)cc2nc3cc(Cl)ccc3nc12 | 3.68 | 3.51 | 3.02 | 3.43 | 5.9 | 3.31 | 9.48 | 5.8 | 3.97 | 20.7 | 1.22 | 1.67 | 1.61 | 1.3 | 2.06 | 1.83 | 2.53 | 1.85 | 1.87 | 6.62
COC(=O)C1=C(O)[C@H](C(=O)OC)C2(O)C(C(=O)OC)[C@H](c3ccc(OC(=O)C(C)c4ccc(CC(C)C)cc4)cc3)C[C@@H]1[C@@H]2C(=O)OC (stereo partly specified) | 30.2 | > 50 | > 50 | > 50 | > 50 | > 50 | > 50 | > 50 | 28.2 | > 50 | 11.6 | 11.7 | 25.3 | 40.3 | > 50 | 27.2 | 33 | 30.6 | 12.8 | 12.3
CC1C(C)N(C(=O)CCl)c2ccccc2N1C(=O)CCl (stereo unspecified) | 2.14 | 1.73 | 2.2 | 1.34 | 0.428 | 3.16 | 7.63 | 2.04 | 0.939 | 2.67 | 0.755 | 0.499 | 0.597 | 0.55 | 0.194 | 0.723 | 1.06 | 0.78 | 0.276 | 0.843
CC(C)(C)c1ccc(Oc2ccc(N)cn2)cc1 | > 100 | > 100 | > 100 | > 100 | > 100 | > 100 | > 100 | > 100 | > 100 | > 100 | 49.2 | 32.8 | 56.4 | 44.2 | 26 | 37.8 | 43.9 | > 100 | 72.9 | 26.2
Cc1ccc(/C=N/Nc2nc(Nc3ccccc3)nc(-n3nc(C)cc3C)n2)cc1 | > 100 | 25.5 | 10.8 | 13.1 | 43.6 | 39.5 | 56.5 | 22.9 | 37.6 | 7.41 | 4.88 | 3.06 | 2.47 | 3.28 | 3.2 | 9.04 | 5.03 | 3.52 | 4.84 | 2.55
CC1=C2[C@@H](CC1)[C@]1(C)O[C@@](C(C)C)(C[C@H]1OC(=O)CO)[C@H]2OC(=O)C1CC1c1ccccc1 (stereo partly specified) | 28.6 | 26.9 | 29.3 | 27.4 | 26.4 | 32.4 | 2.38 | 31.6 | 27.3 | 21.6 | 14.8 | 13 | 12.8 | 12.9 | 13 | 17.3 | 0.0681 | 16.6 | 14.1 | 4.16
CCOC(=O)c1cc2c(cc1Cl)SC(=Nc1ccccc1)N(S(=O)(=O)c1ccc(Cl)cc1)S2(=O)=O | 25.9 | > 100 | 26 | 30.4 | 26.3 | 40.3 | 52.9 | 32.3 | 28.4 | 23.4 | 10.6 | 31.5 | 11.2 | 15.1 | 12.2 | 17.6 | 17 | 16.8 | 12.9 | 3.84
